The source of these data is patent US20150336889A1, “INDOLE DERIVATIVES, PHARMACEUTICAL COMPOSITIONS CONTAINING SUCH INDOLES AND THEIR USE AS DNA METHYLATION MODULATORS” (IKERCHEM, S.L., priority 2012, published 2015).

One test relates to BxPC3. Put plainly: Cancer cell growth inhibition, BxPC3. Type of test: cell-based. Particulars: Homo sapiens, BXPC-3; Pancreatic, BxPC3, cell viability, 72 h. The procedure: (§1) Cell culture-based assays were used to evaluate the ability of compounds of the invention to inhibit cancer cell growth inhibition.
(§2) Cells were obtained from the American Type Culture Collection (ATCC) and European Collection of Cell Cultures (ECACC).
(§3) Cells were thawed in their appropriate media plus supplements (see table below). Cells were passaged at confluence by washing once in HBSS cation-free followed by a 3 minutes incubation with trypsin ([0.5 μg/ml]/EDTA [0.2 μg/ml]) (Gibco-BRL, 15400054) solution in HBSS at 37° C. (except non-adherent cell lines), and transferred to their appropriate media plus supplements. Prior to seeding at defined cell concentration, cells were recovered in medium, centrifuged and taken up in medium, and counted.
(§4) Cells were plated at 3000/5000/10000 cells/well in 100 μl media in tissue culture 96 well plates (Cultek). After 24 h, media was supplemented by 100 μl/well of diluted IPDNs at 100 μM.
(§5) The Hexosaminidase assay was used for the adherent cell lines, whereas the AlamarBlue® assay was used for the non-adherent cell lines.
(§6) Dose-response curves were generated by serial dilutions (1:1) of the compounds. […] Reagent blanks, containing media plus colorimetric reagent without cells were run on each plate. Blank values were subtracted from test values and were routinely 5-10% of uninhibited control values. Plates were incubated 72 h, and living cell number was determined by AlamarBlue® and Hexosaminidase test. The advantages of using those assays are that both can be done in the same microwell plate. AlamarBlue® assay: plates were incubated 72 h and living cell number was determined by AlamarBlue (Biosource DAL1100). After 4 h incubation at 37° C., relative fluorescent intensity, which correlates with the number of living cells, was read in a Cytofluor plate reader (Millipore) at 535/590 nm (Excitation/emission). The hexosaminidase activity was measured according to the following protocol: the media was removed and cells were washed once with PBS. […]

The test system of another test is A-549. The test is described as follows: Cancer cell growth inhibition, A-549. Type of test: cell-based. Particulars: Homo sapiens, A549; Lung, A-549, cell viability, 72 h. How it is done: as §1, §2, §3, §4, §5
(§7) Dose-response curves were generated by serial dilutions (1:1) of the compounds. […] Reagent blanks, containing media plus colorimetric reagent without cells were run on each plate. Blank values were subtracted from test values and were routinely 5-10% of uninhibited control values. Plates were incubated 72 h, and living cell number was determined by AlamarBlue® and Hexosaminidase test. The advantages of using those assays are that both can be done in the same microwell plate. AlamarBlue® assay: plates were incubated 72 h and living cell number was determined by AlamarBlue (Biosource DAL1100). After 4 h incubation at 37° C., relative fluorescent intensity, which correlates with the number of living cells, was read in a Cytofluor plate reader (Millipore) at 535/590 nm (Excitation/emission). The hexosaminidase activity was measured according to the following protocol: the media was removed and cells were washed once with PBS.
(§8) Data analysis was done by calculating the percentage of cell viability normalized in front of negative control values, which were considered as a 100%. The curve was adjusted using a sigmoidal dose-response (variable slope) equation and EC50 values were obtained from the equation
(§9) where, X is the logarithm of concentration. Y is the response. Bottom is the Y value at the bottom plateau Top is the Y value at the top plateau LogEC50 is the X value when the response is halfway between Bottom and Top. With different kinds of variables, this variable is sometimes called ED50 (effective dose, 50%), or IC50 (inhibitory concentration, 50%, used when the curve goes downhill).

In the next test the test system is MDA-MB-435. The test is described as follows: Cancer cell growth inhibition, MDA-MB-435. The class given is cell-based. Particulars: Homo sapiens; Melanoma, MDA-MB-435, cell viability, 72 h. The procedure:
as §1, §2, §3, §4, §5, §7, §8, §9

For a further test, the target named is T1, Human DNMT1 (Homo sapiens, UniProt P26358).
T1 construct: a-a 2-1632, with N-terminal GST tag; GST (N)
T1 sequence (P26358 2-1632 isoform P26358-2): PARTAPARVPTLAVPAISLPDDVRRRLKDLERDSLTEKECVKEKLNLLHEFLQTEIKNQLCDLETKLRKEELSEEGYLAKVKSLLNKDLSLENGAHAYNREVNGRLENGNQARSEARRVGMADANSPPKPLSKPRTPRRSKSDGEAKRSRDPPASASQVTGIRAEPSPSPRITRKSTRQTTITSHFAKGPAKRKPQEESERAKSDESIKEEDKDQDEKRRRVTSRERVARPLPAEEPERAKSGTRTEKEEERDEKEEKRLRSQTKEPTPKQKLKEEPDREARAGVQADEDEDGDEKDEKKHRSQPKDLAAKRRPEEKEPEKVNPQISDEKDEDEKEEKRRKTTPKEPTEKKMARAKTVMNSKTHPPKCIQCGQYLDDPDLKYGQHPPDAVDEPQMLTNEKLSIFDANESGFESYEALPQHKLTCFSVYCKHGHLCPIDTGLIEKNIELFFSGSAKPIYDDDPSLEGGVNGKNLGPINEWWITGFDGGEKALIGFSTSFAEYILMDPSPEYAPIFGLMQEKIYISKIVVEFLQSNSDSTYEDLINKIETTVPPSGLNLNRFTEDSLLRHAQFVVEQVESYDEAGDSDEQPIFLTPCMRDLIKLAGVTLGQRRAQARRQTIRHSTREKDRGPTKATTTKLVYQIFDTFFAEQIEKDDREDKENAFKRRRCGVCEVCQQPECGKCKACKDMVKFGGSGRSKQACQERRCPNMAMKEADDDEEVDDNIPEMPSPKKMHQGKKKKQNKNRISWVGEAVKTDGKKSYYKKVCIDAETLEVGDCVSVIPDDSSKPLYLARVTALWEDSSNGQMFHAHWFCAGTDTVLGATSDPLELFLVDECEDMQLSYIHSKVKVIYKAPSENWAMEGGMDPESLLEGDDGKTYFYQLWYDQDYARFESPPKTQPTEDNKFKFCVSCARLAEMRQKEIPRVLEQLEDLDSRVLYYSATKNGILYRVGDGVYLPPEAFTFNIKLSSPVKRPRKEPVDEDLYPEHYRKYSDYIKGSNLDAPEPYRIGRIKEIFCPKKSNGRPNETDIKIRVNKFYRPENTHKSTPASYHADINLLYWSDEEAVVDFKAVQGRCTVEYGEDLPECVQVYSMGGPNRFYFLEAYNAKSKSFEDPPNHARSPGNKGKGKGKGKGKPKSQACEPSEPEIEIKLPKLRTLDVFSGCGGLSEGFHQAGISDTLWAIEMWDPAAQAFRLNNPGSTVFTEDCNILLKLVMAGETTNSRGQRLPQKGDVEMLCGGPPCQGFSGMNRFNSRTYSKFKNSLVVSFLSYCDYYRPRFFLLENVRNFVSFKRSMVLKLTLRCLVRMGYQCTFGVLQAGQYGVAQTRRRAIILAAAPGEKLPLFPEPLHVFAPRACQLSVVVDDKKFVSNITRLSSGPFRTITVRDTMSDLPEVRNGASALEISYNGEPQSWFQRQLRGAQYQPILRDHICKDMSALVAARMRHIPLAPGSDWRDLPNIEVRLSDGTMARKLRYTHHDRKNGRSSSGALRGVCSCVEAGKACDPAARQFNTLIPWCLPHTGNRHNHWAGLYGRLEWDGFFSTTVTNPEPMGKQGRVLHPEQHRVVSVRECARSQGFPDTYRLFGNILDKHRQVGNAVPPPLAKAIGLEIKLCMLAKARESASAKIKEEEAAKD
Put plainly: DNMT1 enzymatic activity inhibition, radioisotope-based 3H-SAM filter binding assay. The class given is biochemical. Particulars: 1 μM SAM, 25 nM DNMT1, 0.005 mg/ml Poly(dI-dC), 30° C. 1 hour, 10-dose. The procedure:
The inhibition of the enzymatic activity of DNMT1 was tested using low volume radioisotope-based assay which uses tritium-labeled AdoMet (^3H-SAM) as a methyl donor. Inhibitors diluted in DMSO were added by using acoustic technology (Echo550, Labcyte Inc. Sunnyvale, Calif.) into enzyme/substrate mixture in nano-liter range. The reaction was initiated by the addition of ^3H-SAM, and incubated at 30° C. for 1 hour. Total final methylations on the substrate poly(dI-dC) were detected by a filter binding approach. Data analysis was performed using GraphPad Prism software (La Jolla, Calif.) for IC50 curve fits.

In the next test the test system is CCFR-CEM. Put plainly: Cancer cell growth inhibition, CCFR-CEM. The class given is cell-based. Particulars: Hematologic, cell viability, 72 h. The procedure:
as §1, §2, §3, §4, §5, §7, §8, §9

Another test relates to HeLa. Put plainly: Cancer cell growth inhibition, HeLa. The class given is cell-based. Particulars: Homo sapiens, Cervical, cell viability, 72 h. The procedure: as §1, §2, §3, §4, §5, §6
The test system of a further test is MCF-7. The test is described as follows: Cancer cell growth inhibition, MCF-7. The class given is cell-based. Particulars: Homo sapiens, MCF7; Breast, MCF-7, cell viability, 72 h. How it is done: as §1, §2, §3, §4, §5, §7, §8, §9
For a further test, the system named is SK-BR-3. The test is described as follows: Cancer cell growth inhibition, SK-BR-3. Type of test: cell-based. Particulars: Homo sapiens; Breast, SK-BR-3, cell viability, 72 h. How it is done:
as §1, §2, §3, §4, §5, §6

A further test deals with U-373MG. Put plainly: Cancer cell growth inhibition, U-373MG. Type of test: cell-based. Particulars: Homo sapiens, U373 MG, Brain, cell viability, 72 h. The procedure:
as §1, §2, §3, §4, §5, §6

For a further test, the system named is NCI-H1975. The test is described as follows: Cancer cell growth inhibition, NCI-H1975. Type of test: cell-based. Particulars: Homo sapiens; Lung, NCI-H1975, cell viability, 72 h. The procedure: as §1, §2, §3, §4, §5, §7, §8, §9
The subject of the next test is Jurkat. The test is described as follows: Cancer cell growth inhibition, Jurkat. The class given is cell-based. Particulars: Homo sapiens, Hematologic, cell viability, 72 h. The procedure:
as §1, §2, §3, §4, §5, §7, §8, §9

The subject of the next test is U-87MG. Put plainly: Cancer cell growth inhibition, U-87MG. Type of test: cell-based. Particulars: Homo sapiens, Brain, cell viability, 72 h. How it is done:
as §1, §2, §3, §4, §5, §7, §8, §9

A further test deals with MiaPaCa-2. The test is described as follows: Cancer cell growth inhibition, MiaPaCa-2. Type of test: cell-based. Particulars: Homo sapiens, MIA PaCa-2; Pancreatic, MiaPaCa-2, cell viability, 72 h. How it is done:
as §1, §2, §3, §4, §5, §7, §8, §9

The test system of another test is LnCaP. Put plainly: Cancer cell growth inhibition, LnCaP. Type of test: cell-based. Particulars: Homo sapiens, Prostate, cell viability, 72 h. How it is done:
as §1, §2, §3, §4, §5, §7, §8, §9

A further test deals with HT-1080. Put plainly: Cancer cell growth inhibition, HT-1080. The class given is cell-based. Particulars: Homo sapiens; HT-1080, cell viability, 72 h. How it is done:
as §1, §2, §3, §4, §5, §7, §8, §9

The test system of a further test is Daoy. Put plainly: Cancer cell growth inhibition, Daoy. Particulars: Homo sapiens, Brain, cell viability, 72 h. Type of test: cell-based. The procedure:
as §1, §2, §3, §4, §5, §7, §8, §9

Another test deals with A-431. The test is described as follows: Cancer cell growth inhibition, A-431. Particulars: Homo sapiens; Epidermoid, A-431, cell viability, 72 h. Type of test: cell-based. How it is done: as §1, §2, §3, §4, §5, §7, §8, §9
The test system of the next test is HCT-116. Put plainly: Cancer cell growth inhibition, HCT-116. Type of test: cell-based. Particulars: Homo sapiens; Colorectal, HCT-116, cell viability, 72 h. The procedure: as §1, §2, §3, §4, §5, §7, §8, §9
In a further test the test system is NCI-H358. Put plainly: Cancer cell growth inhibition, NCI-H358. Type of test: cell-based. Particulars: Homo sapiens; Lung, NCI-H358, cell viability, 72 h. The procedure: as §1, §2, §3, §4, §5, §7, §8, §9
The next test has as its system Panc-1. The test is described as follows: Cancer cell growth inhibition, Panc-1. Type of test: cell-based. Particulars: Homo sapiens; Pancreatic, Panc-1, cell viability, 72 h. The procedure:
as §1, §2, §3, §4, §5, §7, §8, §9

The test system of another test is RAMOS. The test is described as follows: Cancer cell growth inhibition, RAMOS. Type of test: cell-based. Particulars: Homo sapiens, Hematologic, cell viability, 72 h. How it is done:
as §1, §2, §3, §4, §5, §7, §8, §9

The test system of the next test is 143B. The test is described as follows: Cancer cell growth inhibition, 143B. The class given is cell-based. Particulars: Homo sapiens, Osteosarcoma, cell viability, 72 h. How it is done:
as §1, §2, §3, §4, §5, §7, §8, §9

For a further test, the system named is PC3. Put plainly: Cancer cell growth inhibition, PC3. Type of test: cell-based. Particulars: Homo sapiens, PC-3; Prostate, PC3, cell viability, 72 h. The procedure: as §1, §2, §3, §4, §5, §7, §8, §9
The next test deals with MDA-MB-468. The test is described as follows: Cancer cell growth inhibition, MDA-MB-468. The class given is cell-based. Particulars: Homo sapiens; Breast, MDA-MB-468, cell viability, 72 h. The procedure:
as §1, §2, §3, §4, §5, §6

Another test relates to HT-29. The test is described as follows: Cancer cell growth inhibition, HT-29. The class given is cell-based. Particulars: Homo sapiens; Colorectal, HT-29, cell viability, 72 h. The procedure:
as §1, §2, §3, §4, §5, §6

For the molecule `COc1ccc2c(-c3ccc(O)c(O)c3)cn(CC(=O)c3ccc(O)c(O)c3)c2c1` [Example 4, 1-(3,4-dihydroxyphenyl)-2-[3-(3,4-dihydroxyphenyl)-6-methoxy-1H-indol-1-yl]ethanone], the EC50 (usually the concentration that produces a half-maximal response) was 53 µM with BxPC3; 97 µM in the test with A-549; 14 µM with MDA-MB-435; 45 µM with CCFR-CEM; 36 µM in the test on HeLa; 30 µM in the test on MCF-7. Further, the half-maximal effective concentration (EC50) in the test with SK-BR-3 is 20 µM; with U-373MG, 21 µM; with NCI-H1975, 46 µM; in the test with Jurkat, 24 µM; in the test on U-87MG it was 20 µM; with MiaPaCa-2 it was 66 µM. Besides, the EC50 with LnCaP amounted to 28 µM; with HT-1080 it was 31 µM; in the test with Daoy it was 47 µM; in the test on A-431, 30 µM; in the test on HCT-116, 51 µM; in the test with NCI-H358 it was 11 µM. For the same molecule, the values for the EC50 with Panc-1 and in the test with RAMOS were 27 µM and 51 µM, respectively. In addition, the IC50 (as a rule, the concentration needed to halve the response being measured) on Human DNMT1 came to 13.8 µM.

With `COc1cc(OC)c2c(-c3ccc(O)c(O)c3)cn(CC(=O)c3ccc(O)c(O)c3)c2c1` [Example 8, 1-(3,4-dihydroxyphenyl)-2-[3-(3,4-dihydroxyphenyl)-4,6-dimethoxy-1H-indol-1-yl]ethanone], the EC50 with A-549 stood at 93 µM; in the test with MDA-MB-435, 23 µM; in the test with CCFR-CEM it was 34 µM; in the test on 143B, 19 µM; in the test with PC3, 48 µM; in the test on MDA-MB-468, 94 µM. Further, the EC50 stood at 56 µM in the test on Jurkat; 22 µM with U-87MG; 27 µM with LnCaP; 50 µM in the test on Daoy; 59 µM in the test on A-431; 96 µM in the test with HCT-116. The EC50 with NCI-H358 turned out to be 50 µM; in the test on Panc-1, 55 µM; with HT-29 it was 59 µM; in the test with RAMOS it was 55 µM. In addition, the concentration for half-maximal inhibition (IC50) at Human DNMT1 worked out at 6.85 µM.
